Experimental data from US11701364B2, “Agonists of stimulator of interferon genes sting” (The Scripps Research Institute, priority 2018, dated 2023).
pEC50: −log10 of the molar value.

Each compound was assayed against T1, STING (Stimulator of Interferon Genes) (Homo sapiens, UniProt Q86WV6, G230A/H232R/R293Q/R71H) (assay: ISG-LUC activation assay (ISRE-Luciferase assay in THP-1 Lucia ISG reporter cells)). Details: THP-1 Lucia ISG cells, 24 hours, luciferase reporter; read-out: ISG-LUC activation assay (EC50).
T1 construct: host or cells: THP-1-Lucia ISG cells (human monocytic line)
T1 sequence (Q86WV6 whole entry R71H/G230A/H232R/R293Q): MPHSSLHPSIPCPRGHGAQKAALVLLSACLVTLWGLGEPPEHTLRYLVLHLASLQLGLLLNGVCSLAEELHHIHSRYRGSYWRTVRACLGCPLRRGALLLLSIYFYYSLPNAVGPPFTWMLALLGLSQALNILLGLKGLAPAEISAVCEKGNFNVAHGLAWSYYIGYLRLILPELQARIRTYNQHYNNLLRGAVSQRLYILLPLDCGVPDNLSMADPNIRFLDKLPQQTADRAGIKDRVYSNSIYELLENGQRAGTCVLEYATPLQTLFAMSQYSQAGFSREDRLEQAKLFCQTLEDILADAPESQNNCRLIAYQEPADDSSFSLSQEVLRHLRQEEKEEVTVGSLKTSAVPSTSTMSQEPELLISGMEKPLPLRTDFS
Assay type: cell-based
Description: (§1) This has been established using a primary assay involving a human THP-1 cell line carrying an IRF-inducible reporter with 5 copies of the IFN signaling response element. Counter screens, involving alternative reporter constructs, rodent cell-based assays, as well as cGAS and STING knock-out cell lines, are used to eliminate luciferase artifacts and ensure human-rodent cross species reactivity, as well as pathway selectivity. Biochemical assays, involving cGAS enzymatic activity and STING protein binding assays, are used to identify the specific target of identified hits.
(§2) THP-1 Lucia ISG cells were resuspended in low-serum growth media (2% FBS) at a density of 5×10^5 cells/ml and treated with test article or vehicle (DMSO). 50 μL of cells were seeded into each well of a 384-well white greiner plates and incubated for 24 hours. To evaluate expression of the luciferase reporter, 30 μl of Quanti-luc (Invivogen) detection reagent was added to each well and luminescence was read using an Envision plate reader (Perkin Elmer) set with an integration time of 0.1 seconds.

Compound | pEC50
O=C(Nc1ccc(Br)cc1C(O)(C(F)(F)F)C(F)(F)F)c1ccc(-n2ccnc2)nn1 [Compound 164] | < 4.70
O=C(Nc1cc(F)c(OC(F)(F)F)cc1C(=O)O)c1ccc(-n2ccnc2)nn1 [Compound 146] | 5.66
COC(=O)c1cc(F)cc(F)c1NC(=O)c1ccc(-n2ccnc2)nn1 [Compound 19] | 6.09
CC(C)COC(=O)c1ccccc1NC(=O)c1ccc(-n2ccnc2)nn1 [Compound 22] | 6.05
O=c1oc(-c2ccc(-n3ccnc3)nn2)nc2c1COCC2 [Compound 168] | 4.95
O=c1oc(-c2ccc(-n3ccnc3)nn2)nc2cc3c(cc12)OC(F)(F)O3 [Compound 141] | < 4.30
O=c1oc(-c2ccc(-n3ccnc3)nn2)nc2cc3c(cc12)OCCO3 [Compound 139] | 5.60
COC(=O)c1cc(OC)ccc1NC(=O)c1ccc(-n2ccnc2)nn1 [Compound 14] | 6.54
CCN(CC)CCOC(=O)c1cc(F)c(F)cc1NC(=O)c1ccc(-n2ccnc2)nn1 [Compound 68] | 5.74
CCOC(=O)c1nc2ccccc2cc1NC(=O)c1ccc(-n2ccnc2)nn1 [Compound 153] | 7.37
CCOC(=O)C1=C(NC(=O)c2ccc(-n3ccnc3)nn2)CCC1 [Compound 113] | 4.73
Cc1noc(-c2ccccc2NC(=O)c2ccc(-n3ccnc3)nn2)n1 [Compound 7] | < 4.30
COC(=O)c1cc(F)c(C2CC2)cc1NC(=O)c1ccc(-n2ccnc2)nn1 [Compound 56] | 6.52
COC(=O)c1cc(F)cc(C)c1NC(=O)c1ccc(-n2ccnc2)nn1 [Compound 175] | ~5.55
Cn1ncc2cc(C(=O)O)c(NC(=O)c3ccc(-n4ccnc4)nn3)cc21 [Compound 167] | 4.83
COC(=O)c1ccc(C(=O)OC)c(NC(=O)c2ccc(-n3ccnc3)nn2)c1 [Compound 159] | < 4.70
CCCc1ccc(NC(=O)c2ccc(-n3ccnc3)nn2)c(C(=O)O)c1 [Compound 171] | < 4.70
O=C(Nc1cc(F)c(F)cc1C(=O)NC1CCC(O)(C(F)(F)F)CC1)c1ccc(-n2ccnc2)nn1 (stereo not drawn) [Compound 87] | < 4.70
COC(=O)c1cc(F)c(F)cc1NC(=O)c1ccc(-n2ccnc2)nn1 [Compound 107] | 6.38
CCOC(=O)C1=C(NC(=O)c2ccc(-n3ccnc3)nn2)C2CCC1O2 (stereo not drawn) [Compound 155] | < 4.30
COC(=O)c1n[nH]cc1NC(=O)c1ccc(-n2ccnc2)nn1 [Compound 123] | 5.52
O=C(Nc1cc(F)c(F)cc1C(=O)NCCO)c1ccc(-n2ccnc2)nn1 [Compound 122] | 5.10
CCOC(=O)c1nc(C)ccc1NC(=O)c1ccc(-n2ccnc2)nn1 [Compound 30] | 6.83
COC(=O)c1cc(C)c(F)cc1NC(=O)c1ccc(-n2ccnc2)nn1 [Compound 50] | 6.84
O=C(Nc1ccc(C(F)(F)F)cc1C(=O)O)c1ccc(-n2ccnc2)nn1 [Compound 90] | < 4.70
O=C(Nc1cc(F)c(F)cc1C(=O)NC1CCC(O)(C(F)(F)F)CC1)c1ccc(-n2ccnc2)nn1 (stereo not drawn) [Compound 88] | 5.28
COC(=O)c1nc(Br)c(F)cc1NC(=O)c1ccc(-n2ccnc2)nn1 [Compound 43] | 6.85
CCOC(=O)c1c(F)ccc(F)c1NC(=O)c1ccc(-n2ccnc2)nn1 [Compound 143] | 5.01

Same assay, conditions: primary assay, human THP-1 IRF-inducible reporter; read-out: EC50

Compound | pEC50
O=C(Nc1ccc(Br)cc1C(O)(C(F)(F)F)C(F)(F)F)c1ccc(-n2ccnc2)nn1 [Compound 164] | ~6.00

Each compound was assayed on STING knockout cells (assay: ISRE-Luciferase reporter activity in STING knockout THP-1 cells (counter screen)). Details: not given.
Assay type: cell-based, human
Procedure: Wild-type and STING KO THP-1 ISRE-Luciferase reporter cells were treated with increasing doses of 2′3′-cGAMP and reporter activity (luminescence) was assessed 48 h after treatment (A). Lack of STING protein expression was confirmed in STING KO THP-1 cells by western blot with gamma-tubulin used as a protein loading control (B). Wild-type and STING KO THP-1 reporter cells were treated with increasing doses of Compound 164 (Cmpd 164) and reporter activity and cell viability were assessed 24 h after treatment (C-D).
We have established a robust platform for identifying non-nucleotide small molecule STING agonists. This has been established using a primary assay involving a human THP-1 cell line carrying an IRF-inducible reporter with 5 copies of the IFN signaling response element. […]
as §2, with “50 μL of cells were seeded into each well of a 384-well white greiner plates and incubated for 24 hours.” left out

Compound | activity in STING knockout cells
O=C(Nc1ccc(Br)cc1C(O)(C(F)(F)F)C(F)(F)F)c1ccc(-n2ccnc2)nn1 [Compound 164] | lack of activity

These compounds were tested on cGAS knockout cells (assay: Activity in wild-type and cGAS knockout cells (counter screen)). Details: not given.
Assay type: cell-based
Description: We have established a robust platform for identifying non-nucleotide small molecule STING agonists. This has been established using a primary assay involving a human THP-1 cell line carrying an IRF-inducible reporter with 5 copies of the IFN signaling response element. Counter screens, involving alternative reporter constructs, rodent cell-based assays, as well as cGAS and STING knock-out cell lines, are used to eliminate luciferase artifacts and ensure human-rodent cross species reactivity, as well as pathway selectivity. Biochemical assays, involving cGAS enzymatic activity and STING protein binding assays, are used to identify the specific target of identified hits. […] Further evidence is provided by STING protein thermal shift data. A preliminary medicinal chemistry effort, involving the design, synthesis, and testing of ˜100 analogs within the series, has identified key features of the molecule that are required for activity and has led to the identification of derivatives with ˜10-fold improvements in cell-based potency (by for example modulating the substitution pattern on the aniline ring) and ˜50-fold improvement in plasma stability (by modulating the size of the substituent of the ester).

Compound | activity in wild-type and cGAS knockout cells
O=C(Nc1ccc(Br)cc1C(O)(C(F)(F)F)C(F)(F)F)c1ccc(-n2ccnc2)nn1 [Compound 164] | observed activity

These compounds were tested on human PBMCs (assay: Type I IFN protein expression in human PBMCs). Details: compared with 2′-3′ cGAMP.
Assay type: cell-based

Compound | type I IFN protein expression, efficacy
O=C(Nc1ccc(Br)cc1C(O)(C(F)(F)F)C(F)(F)F)c1ccc(-n2ccnc2)nn1 [Compound 164] | comparable to that observed for 2′-3′ cGAMP

The compounds below were run on interferon-stimulated gene signature (assay: Interferon-stimulated gene signature expression (qPCR)). Details: relevant cell types.
Assay type: cell-based, human
Procedure: Wild-type and STING KO THP-1 cells were stimulated with poly(dA:dT), a known activator of both RIG-I and cGAS-dependent signaling cascades, and downstream target gene expression was assessed 48 h later by qPCR (A). Wild-type and STING KO THP-1 cells were stimulated with 2′3′-cGAMP or Cmpd 164 at the indicated doses and activation of type I interferon signaling was assessed by gene expression analysis of IFNB1 (B) and interferon stimulated genes, IFIT3 (C) and CXCL10 (D).
as §1, with “We have established a robust platform for identifying non-nucleotide small molecule STING agonists. This” for “This”, “Biochemical assays, involving cGAS enzymatic activity and STING protein binding assays, are used to identify the specific target of identified hits.” left out
THP-1 cells were resuspended in low-serum growth media at a density of 5×10^5 cells/ml and treated with test article or vehicle (DMSO). […] Gene expression was assessed using Taqman primers and probes listed in Table 4 with the Taqman Universal Mix II (cat. no. 4440038, ThermoFisher) following manufacturer's instructions. […]

Compound | interferon-stimulated gene signature expression
O=C(Nc1ccc(Br)cc1C(O)(C(F)(F)F)C(F)(F)F)c1ccc(-n2ccnc2)nn1 [Compound 164] | induces interferon-stimulated gene signature expression
